In US10344026B2, “Compositions and methods of targeting mutant K-ras” (NANTBIO, INC., priority 2017, dated 2019):
pEC50, pIC50: −log10 of the molar value.

Assays:
Assay type in all cases: cell-based
Panc10.05-G12D = assay: Viability assay (CellTiterBlue, 72 hr) Panc10.05; conditions: Homo sapiens, Panc1005, GI50, CellTiterBlue, Panc10.05 K-Ras G12D, read-out: 72 hr Cell Viability Panc10.05 (G12D)
Outline: (§1)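 Each line was plated at 1000 cells per well and incubated for 72 hr with compound after an 18 hr settling period. CellTiterBlue fluorescence measured the result, and GI50 was fitted relative to DMSO and tamoxifen controls.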

K-Ras G12D = target: T1, K-Ras G12D (Homo sapiens, UniProt P01116, G12D); assay: G-LISA Ras activation, 293H cells transfected with G12D mutant; conditions: compound 1 hour
T1 construct: expressed in transfected cells; host or cells: 293H cells
Outline: (§2)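 Mutant or wild-type Ras was expressed transiently in 293H cells, which were incubated 1 hour with compound across 3.125-25 μM. G-LISA on cold lysates gave Ras activation, wild-type cells having first been EGF-stimulated (100 ng/ml, 2 min).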

Panc1-G12D = assay: Viability assay (CellTiterBlue, 72 hr) Panc1; conditions: Homo sapiens, PANC-1, GI50, CellTiterBlue, Panc1 K-Ras G12D, read-out: 72 hr Cell Viability Panc1 (G12D)
Outline: as §1

[1] = tested on: phospho-ERK in Panc10.05 (G12D); assay: In-Cell Western phospho-ERK, Panc10.05; conditions: Homo sapiens, Panc1005, 1 h; Panc10.05, one hour treatment; read-out: In-Cell Western Panc10.05 (G12D) Erk (P)
Outline: (§3)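 One-hour compound treatment of cells plated a day earlier, 0.5% DMSO. Phospho-signal detected by in-cell immunofluorescence imaging; EC50 calculated.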

[2] = tested on: phospho-Akt in Panc1 (G12D); assay: In-Cell Western phospho-Akt, Panc1; conditions: Homo sapiens, PANC-1, 1 h; Panc1, one hour treatment; read-out: In-Cell Western Panc1 (G12D) Akt (P)
Outline: as §3

HCT116-G31D = assay: Viability assay (CellTiterBlue, 72 hr) HCT116; conditions: Homo sapiens, HCT-116, GI50, CellTiterBlue, HCT116 K-Ras G13D, read-out: 72 hr Cell Viability HCT116 (G13D)
Outline: as §1

[3] = tested on: phospho-ERK in A375 (Wild-type); assay: In-Cell Western phospho-ERK, A375; conditions: Homo sapiens, A-375, 1 h; A375, one hour treatment; read-out: In-Cell Western A375 (Wild-type) Erk (P)
Outline: as §3

[4] = tested on: A375 (K-Ras wild type cell line); assay: Viability assay (CellTiterBlue, 72 hr) A375; conditions: Homo sapiens, A-375, GI50, CellTiterBlue
Outline: as §1

[5] = tested on: HCC827 (K-Ras wild type cell line); assay: Viability assay (CellTiterBlue, 72 hr) HCC827; conditions: Homo sapiens, GI50, CellTiterBlue, HCC827 K-Ras wild-type
Outline: as §1

[6] = tested on: phospho-Akt in Panc10.05 (G12D); assay: In-Cell Western phospho-Akt, Panc10.05; conditions: Homo sapiens, Panc1005, 1 h; Panc10.05, one hour treatment; read-out: In-Cell Western Panc10.05 (G12D) Akt (P)
Outline: as §3

K-Ras G12V = target: T2, K-Ras G12V (Homo sapiens, UniProt P01116, G12V); assay: G-LISA Ras activation, 293H cells transfected with G12V mutant; conditions: compound 1 hour
T2 construct: expressed in transfected cells; host or cells: 293H cells
Method: 293H cells were seeded in 6-wells at 0.6×10^6 cells per well and transfected next day with 5 μg of Ras wild-type, or G12C, G12D or G12V mutant DNA plasmid vector using transfection reagent Lipofectamine 3000. Next day cells were treated with 3.125-25 μM of Ras compounds for 1 hour. Wild-type transfected cells were subsequently treated with 100 ng/ml EGF for 2 minutes. Cells were washed once in ice-cold PBS, lysed in complete lysis buffer on ice, and processed by G-LISA according to Cytoskeleton protocol.

[7] = tested on: phospho-ERK in HCC827 (Wild-type); assay: In-Cell Western phospho-ERK, HCC827; conditions: Homo sapiens, 1 h; HCC827, one hour treatment; read-out: In-Cell Western HCC827 (Wild-type) Erk (P)
Outline: as §3

[8] = tested on: Ishikawa (K-Ras wild type cell line); assay: Viability assay (CellTiterBlue, 72 hr) Ishikawa; conditions: Homo sapiens, GI50, CellTiterBlue, Ishikawa K-Ras wild-type
Outline: as §1

[9] = tested on: phospho-Akt in A375 (Wild-type); assay: In-Cell Western phospho-Akt, A375; conditions: Homo sapiens, A-375, 1 h; A375, one hour treatment; read-out: In-Cell Western A375 (Wild-type) Akt (P)
Outline: as §3

[10] = tested on: phospho-ERK in Panc1 (G12D); assay: In-Cell Western phospho-ERK, Panc1; conditions: Homo sapiens, PANC-1, 1 h; Panc1, one hour treatment; read-out: In-Cell Western Panc1 (G12D) Erk (P)
Outline: as §3

[11] = tested on: U87-MG (K-Ras wild type cell line); assay: Viability assay (CellTiterBlue, 72 hr) U87-MG; conditions: Homo sapiens, U-87 MG, GI50, CellTiterBlue, U87-MG K-Ras wild-type
Outline: as §1

wild type K-Ras = target: T3, wild type K-Ras (Homo sapiens, UniProt P01116); assay: G-LISA Ras activation, 293H cells transfected with Ras wild-type, EGF stimulated; conditions: compound 1 hour, then 100 ng/ml EGF 2 minutes
T3 construct: expressed in transfected cells; host or cells: 293H cells
Outline: as §2

[12] = tested on: phospho-Akt in HCC827 (Wild-type); assay: In-Cell Western phospho-Akt, HCC827; conditions: Homo sapiens, 1 h; HCC827, one hour treatment; read-out: In-Cell Western HCC827 (Wild-type) Akt (P)
Outline: as §3

T2 sequence (P01116 whole entry G12V): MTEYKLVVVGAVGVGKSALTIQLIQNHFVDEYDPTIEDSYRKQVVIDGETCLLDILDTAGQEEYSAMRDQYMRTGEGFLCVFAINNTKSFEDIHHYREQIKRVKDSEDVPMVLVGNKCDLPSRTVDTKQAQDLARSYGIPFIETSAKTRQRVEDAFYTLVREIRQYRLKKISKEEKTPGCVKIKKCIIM
T1 sequence (P01116 whole entry G12D): as the sequence (P01116 whole entry G12V) above, with V12D counted along it
T3 sequence (P01116 whole entry): as the sequence (P01116 whole entry G12V) above, with V12G counted along it

Row | Structure (SMILES) | pIC50 (Panc10.05-G12D) | IC50 (K-Ras G12D) | pIC50 (Panc1-G12D) | pEC50 [1] | pEC50 [2] | pIC50 (HCT116-G31D) | pEC50 [3] | pIC50 [4] | pIC50 [5] | pEC50 [6] | IC50 (K-Ras G12V) | pEC50 [7] | pIC50 [8] | pEC50 [9] | pEC50 [10] | pIC50 [11] | IC50 (wild type K-Ras) | pEC50 [12]
1 | Cc1nc(C(C)C)oc1C(=O)Nc1nc(-c2ccc3c(c2)CCC(=O)N3)cs1 [Compound 7, 2-isopropyl-4-methyl-N-(4-(2-oxo-1,2,3,4-tetrahydroquinolin-6-yl)thiazol-2-yl)oxazole-5-carboxamide] | 5.70 | 4.8 µM | 5.10 | 5.40 | < 4.60 | < 4.60 | < 4.60 | < 4.60 | < 4.60 | 5.10 | > 25 µM | < 4.60 | < 4.60 | < 4.60 | < 4.60 | < 4.60 | 11.7 µM | 
2 | Cc1nc(C2CCC2)oc1C(=O)Nc1nc(-c2ccc3c(c2)CCC(=O)N3)cs1 [Compound 8, 2-cyclobutyl-4-methyl-N-(4-(2-oxo-1,2,3,4-tetrahydroquinolin-6-yl)thiazol-2-yl)oxazole-5-carboxamide] | 5.89 | 5.9 µM | 4.77 | 5.70 | < 4.60 | < 4.60 | < 4.60 |  | < 4.60 | 5.22 | > 25 µM | < 4.60 | < 4.60 | < 4.60 | < 4.60 |  | 15.5 µM | 
3 | CCc1nc(C)c(C(=O)Nc2nc(-c3ccc4c(c3)CCC(=O)N4Cc3ccccn3)cs2)o1 [Compound 63, 2-ethyl-4-methyl-N-(4-(2-oxo-1-(pyridin-2-ylmethyl)-1,2,3,4-tetrahydroquinolin-6-yl)thiazol-2-yl)oxazole-5-carboxamide] | 5.70 | 5.6 µM | 5.30 | 5.15 | 5.40 | 5.40 |  |  | 5.30 | < 4.60 | 9.8 µM | 5.22 | 5.40 |  | 5.52 | 5.82 | > 25 µM | 5.00
4 | CCc1nc(C)c(C(=O)Nc2nc(-c3ccc4c(c3)CCC(=O)N4Cc3cccnc3)cs2)o1 [Compound 64, 2-ethyl-4-methyl-N-(4-(2-oxo-1-(pyridin-3-ylmethyl)-1,2,3,4-tetrahydroquinolin-6-yl)thiazol-2-yl)oxazole-5-carboxamide] | 5.70 | 3 µM | 5.30 | 5.05 | 5.22 | 5.30 |  |  | 5.00 | < 4.60 | 9.6 µM | 5.15 | 5.46 |  | 5.30 | 5.70 | > 25 µM | 4.82
5 | Cc1nc(C)c(C(=O)Nc2nc(-c3ccc4c(c3)CCC(=O)N4CC3CCCOC3)cs2)o1 (stereo not shown) [Compound 66, 2,4-dimethyl-N-(4-(2-oxo-1-((tetrahydro-2H-pyran-3-yl)methyl)-1,2,3,4-tetrahydroquinolin-6-yl)thiazol-2-yl)oxazole-5-carboxamide] | 5.70 | 4.5 µM | 5.22 | 5.52 | 5.70 | 5.52 |  |  | 5.40 | 4.74 | 6.5 µM | 5.40 | 5.70 |  | 5.52 |  | 11.1 µM | 4.82
